The nature of series [1]: Metabolic stability in human liver microsomes. It counts as in vitro ADME. Particulars: 1 h, 37 °C, three experiments. Here is the method: The metabolic stability was investigated by incubating selected compounds with human liver microsomes (HLMs) for 1 h at 37 °C. The percentage of non-metabolized compounds and metabolites was analyzed by HPLC-UV-MS. […] HPLC analysis confirmed the presence of the oxidated metabolites in small percentages.
(§1) For the ADME property determination, an Agilent 1260 Infinity HPLC-DAD interfaced with an Agilent MSD 6130 (Agilent Technologies, Palo Alto, CA, USA) was used. Chromatographic conditions were optimized using a Phenomenex Kinetex C18-100 Å column (150 × 4.6 mm) with 5 µm particle size and gradient elution with a binary solution (eluent A: H2O; eluent B: ACN; both eluents were acidified with formic acid 0.1% v/v) at room temperature. The LC analyses started with 5% of B (from t = 0 to t = 1 min), then B was increased to 95% (from t = 1 to t = 10 min) and then kept at 95% (from t = 10 to t = 19 min) and finally returned to initial conditions in 1.0 min. The flow rate was 0.6 mL/min and the injection volume was 10 µL.
The test was performed as previously reported with minor modifications. Each compound was dissolved in DMSO and phosphate buffer (0.025 M, pH 7.4), and human liver microsomes (0.2 mg/mL) and a NADPH-regenerating system in MgCl2 48 mM were added to a final volume of 500 µL. This solution was incubated for 1 h at 37 °C and then the reaction was stopped and quenched using 1 mL of ACN. The reaction mixtures were then centrifuged (4000 rpm for 10 min) and the supernatant was taken, dried under nitrogen flow, and then resuspended in 100 µL of methanol. The parent drug and metabolites were subsequently determined using the chromatographic conditions described above. The percentage of non-metabolized compounds was calculated by comparison with reference solutions. The determination of metabolic stability for each compound was performed in three independent experiments.
A general note: Microsomes from liver hold many membrane-bound enzymes, among them those of drug oxidation.

Series [2] can be described thus: Stability test in human plasma. Format: in vitro ADME. The following applies: pH 7.4, 37 °C, up to 24 h, read-out: Plasma Stab. (T1/2, h ± SD) (converted). Here is the method:
Finally, compounds were incubated in human plasma at 37 °C for 24 h. […] Taken together, stability studies confirmed that the series is suitable for further development.
as §1
A stock solution of the target compound in DMSO (2 mM) was incubated in a test tube with pooled human plasma (55.7 mg protein/mL) and HEPES buffer (25 mM, 140 mM NaCl pH 7.4) up to a final volume of 1.0 mL. The mixture was incubated at 37 °C, and at set time points (0.0, 0.5, 1, 4, 8, 24 h), samples of 50 µL were taken, mixed with 400 µL of ACN to stop the reaction of plasmatic esterases, and centrifuged at 5000 rpm for 15 min. The supernatant was removed and analyzed using the LC-UV/MS method previously described. The half-life (t½) was calculated according to the following equation: t½=ln 2/k where k represents the substrate elimination constant. For each compound, the determination was performed in three independent experiments.

Regarding `CN1C(=O)c2ccc(NC(=O)c3cc4cccc(Cl)c4s3)cc2C1=O` [Compound 17], in series [1], the “HLM Stab.% ± SD (percentage of non-metabolized compound)” value worked out at 96.39 ± 0.11%. Also, in series [2], the half-life is over 24 h.

Values taken from article PMC10888717, “Identification of Novel Non-Nucleoside Inhibitors of Zika Virus NS5 Protein Targeting MTase Activity” (International Journal of Molecular Sciences, 2024).
